Consider 18 compounds from patent publication EP4483954A1 (Masarykova Univerzita, priority 2023, dated 2025).

pIC50: −log10 of the molar value.

What all share (assay type): biochemical
The target in one assay is T1, CDKL3(h) (Homo sapiens, UniProt Q8IVW4).
T1 construct: purchased Eurofins (KinaseProfiler)
Nature of the assay: radiometric kinase assay (KinaseProfiler, Eurofins), CDKL3. The settings on record: in vitro radiometric kinase assay, tested at 1 nM to 10 000 nM, no pre-incubation; read-out: inhibitory activities (IC50 values) CDKL3. As for the experimental part:
(§1) The compounds were profiled in the radiometric assays (KinaseProfiler, Eurofins).
(§2) Briefly, kinases were diluted in the buffer shown below prior to addition to the reaction mix: • CDKL3, TAF1L: 20 mM Tris/HCl pH 8.5, 0.2 mM EDTA, 0.1% β-mercaptoethanol, 0.01% Brij-35, 5% glycerol, 1 mg/ml BSA; • Haspin: 15 mM MOPS, 0.75 mM EDTA, 0.0075% Brij-35, 3.75% Glycerol, 150 mM NaCl, 0.1% β-mercaptoethanol, 1 mg/mLBSA; • CDKL4, CLK2, PIM1, TRB2: […], 1 mM EDTA, 0.01% Brij-35, 5% Glycerol, 0.1% β-mercaptoethanol, 1 mg/mL BSA.
(§3) All compounds were prepared to 50x final assay concentration in 100% DMSO. This working stock of the compound was added to the assay well as the first component in the reaction, followed by the remaining components as detailed in the general assay protocols below. There was no pre-incubation step between the compound and the kinase prior to initiation of the reaction.
CDKL3(h) was incubated with 8 mM MOPS pH 7.0, 0.2 mM EDTA, 250 µM RRRFRPASPLRGPPK (SEQ ID NO. 1), 10 mM magnesium acetate and γ-^33P-ATP (specific activity and concentration as required). The reaction was initiated by the addition of the Mg/ATP mix. After incubation for 120 minutes at room temperature, the reaction was stopped by the addition of phosphoric acid to a concentration of 0.5%. An aliquot of the stopped reaction was spotted onto a filter and washed four times for 4 minutes in 0.425% phosphoric acid and once in methanol prior to drying and scintillation counting.
(§4) Kinase activity data were expressed as the percent remaining kinase activity in tested samples compared to the vehicle (DMSO) reactions. The compounds were tested at the following concentrations: 1 nM, 3 nM, 10 nM, 30 nM, 100 nM, 300 nM, 1000 nM, 3000 nM, and 10 000 nM; IC50 values and curve fits were then obtained.

Another assay deals with T2, DYRK2 (h) (Homo sapiens, UniProt Q92630).
T2 construct: purchased Eurofins (KinaseProfiler)
T2 sequence (Q92630 1-601): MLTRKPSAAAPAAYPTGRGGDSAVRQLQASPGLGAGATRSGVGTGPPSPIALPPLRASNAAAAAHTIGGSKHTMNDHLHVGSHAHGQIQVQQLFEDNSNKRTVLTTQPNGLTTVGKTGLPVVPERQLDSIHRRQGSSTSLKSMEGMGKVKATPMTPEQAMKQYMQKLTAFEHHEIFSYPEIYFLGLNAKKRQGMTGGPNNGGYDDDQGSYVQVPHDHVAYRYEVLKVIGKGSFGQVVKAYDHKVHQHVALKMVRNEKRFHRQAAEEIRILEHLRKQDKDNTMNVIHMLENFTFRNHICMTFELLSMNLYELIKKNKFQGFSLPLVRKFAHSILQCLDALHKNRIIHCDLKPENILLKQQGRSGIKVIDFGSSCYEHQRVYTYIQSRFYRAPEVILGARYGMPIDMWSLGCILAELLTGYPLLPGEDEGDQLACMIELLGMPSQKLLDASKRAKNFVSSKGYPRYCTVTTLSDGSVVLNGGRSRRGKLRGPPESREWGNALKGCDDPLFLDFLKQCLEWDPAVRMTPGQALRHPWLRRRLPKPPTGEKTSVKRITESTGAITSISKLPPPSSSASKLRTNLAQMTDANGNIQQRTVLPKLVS
Nature of the assay: radiometric kinase assay (KinaseProfiler, Eurofins), DYRK2. Conditions: in vitro radiometric kinase assay, tested at 1 nM to 10 000 nM, no pre-incubation; read-out: inhibitory activities (IC50 values) DYRK2. How it is done: as §1, §3
DYRK2 (h) was incubated with 8 mM MOPS pH 7.0, 0.2 mM EDTA, 2 mg/mL casein, 10 mM magnesium acetate and γ-^33P-ATP (specific activity and concentration as required). The reaction was initiated by the addition of the Mg/ATP mix. After incubation for 40 minutes at room temperature, the reaction was stopped by the addition of phosphoric acid to a concentration of 0.5%. An aliquot of the reaction was then spotted onto a filter and washed four times for 4 minutes in 0.425% phosphoric acid and once in methanol prior to drying and scintillation counting.
as §4

The target in the next assay is T3, Haspin (h) (Homo sapiens, UniProt Q8TF76).
T3 construct: purchased Eurofins (KinaseProfiler)
T3 sequence (Q8TF76 1-798): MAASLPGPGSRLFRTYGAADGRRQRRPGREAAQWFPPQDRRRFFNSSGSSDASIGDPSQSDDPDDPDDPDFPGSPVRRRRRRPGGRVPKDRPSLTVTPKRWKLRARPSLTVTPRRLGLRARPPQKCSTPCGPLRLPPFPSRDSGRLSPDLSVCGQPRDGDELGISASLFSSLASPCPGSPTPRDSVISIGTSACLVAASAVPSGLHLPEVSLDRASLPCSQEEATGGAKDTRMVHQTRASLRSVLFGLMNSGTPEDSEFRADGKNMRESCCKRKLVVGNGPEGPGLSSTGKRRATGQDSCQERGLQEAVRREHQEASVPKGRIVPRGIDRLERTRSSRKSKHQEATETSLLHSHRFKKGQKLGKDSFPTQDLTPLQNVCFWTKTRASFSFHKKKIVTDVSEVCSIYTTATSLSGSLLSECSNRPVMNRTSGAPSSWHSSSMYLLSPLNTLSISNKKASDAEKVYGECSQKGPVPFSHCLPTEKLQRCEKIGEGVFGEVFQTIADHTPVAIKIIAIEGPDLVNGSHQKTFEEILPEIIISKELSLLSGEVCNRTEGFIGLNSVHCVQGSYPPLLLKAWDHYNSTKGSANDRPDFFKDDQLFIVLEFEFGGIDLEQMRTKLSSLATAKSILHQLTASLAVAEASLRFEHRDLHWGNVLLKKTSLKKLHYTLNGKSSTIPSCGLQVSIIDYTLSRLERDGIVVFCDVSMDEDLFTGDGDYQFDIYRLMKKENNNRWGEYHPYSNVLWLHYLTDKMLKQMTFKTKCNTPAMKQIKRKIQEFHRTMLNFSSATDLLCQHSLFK
Nature of the assay: radiometric kinase assay (KinaseProfiler, Eurofins), Haspin. Conditions: in vitro radiometric kinase assay, tested at 1 nM to 10 000 nM, no pre-incubation; read-out: inhibitory activities (IC50 values) Haspin. As for the experimental part:
as §1, §2, §3
Haspin (h) was incubated with 8 mM MOPS pH 7.0, 0.2 mM EDTA, 500 µM RARTLSFAEPG (SEQ ID NO. 3), 10 mM magnesium acetate and γ-^33P-ATP (specific activity and concentration as required). The reaction was initiated by the addition of the Mg/ATP mix. After incubation for 40 minutes at room temperature, the reaction was stopped by the addition of phosphoric acid to a concentration of 0.5%. An aliquot of the reaction was then spotted onto a filter and washed four times for 4 minutes in 0.425% phosphoric acid and once in methanol prior to drying and scintillation counting.
as §4

For orientation: pIC50 means −log10 of the IC50, conventionally taken in molar units.

T1 sequence (Q8IVW4 whole entry): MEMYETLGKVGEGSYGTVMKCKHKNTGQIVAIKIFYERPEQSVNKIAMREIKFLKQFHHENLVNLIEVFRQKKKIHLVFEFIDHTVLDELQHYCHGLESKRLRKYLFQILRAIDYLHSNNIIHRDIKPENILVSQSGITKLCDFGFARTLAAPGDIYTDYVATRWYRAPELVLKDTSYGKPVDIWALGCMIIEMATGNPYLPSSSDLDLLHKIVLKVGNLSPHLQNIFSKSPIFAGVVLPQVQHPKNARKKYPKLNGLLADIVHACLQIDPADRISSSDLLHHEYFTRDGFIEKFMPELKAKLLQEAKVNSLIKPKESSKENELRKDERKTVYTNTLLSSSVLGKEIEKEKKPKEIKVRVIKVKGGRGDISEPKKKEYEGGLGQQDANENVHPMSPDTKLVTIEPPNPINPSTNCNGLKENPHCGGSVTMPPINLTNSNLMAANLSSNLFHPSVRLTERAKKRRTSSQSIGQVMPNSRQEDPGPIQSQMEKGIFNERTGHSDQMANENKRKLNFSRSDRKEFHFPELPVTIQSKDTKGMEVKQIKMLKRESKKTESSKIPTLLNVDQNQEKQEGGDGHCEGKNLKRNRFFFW

Turning to `Cn1cc(-c2ccc3scc(-c4ccnc(C#N)c4)c3n2)cn1`, the negative logarithm of the IC50 (pIC50) at CDKL3(h) was 6.30 to 7.00; on DYRK2 (h) it was 5.52 to 6.30; at Haspin (h) it was 6.30 to 7.00.
In the case of `Cn1cc(-c2ccc3scc(-c4cnn(Cc5ccccc5)c4)c3n2)cn1`, the pIC50 at CDKL3(h) is 5.52 to 6.30; on DYRK2 (h), 5.00 to 5.52; on Haspin (h), 6.30 to 7.00.
With `Cn1cc(-c2ccc3scc(-c4ccccc4)c3n2)cn1` [Preparative Example 2, 5-(1-methyl-1H-pyrazol-4-yl)-3-phenylthieno[3,2-b]pyridine], the pIC50 at CDKL3(h) is 6.30 to 7.00; on DYRK2 (h), 5.52 to 6.30; at Haspin (h), 6.30 to 7.00.
`Cn1cc(-c2ccc3scc(C4=CCNCC4)c3n2)cn1` [Preparative Example 9, 5-(1-methyl-1H-pyrazol-4-yl)-3-(1,2,3,6-tetrahydropyridin-4-yl)-thieno[3.2-b]pyridine]: the pIC50 on CDKL3(h) is 5.52 to 6.30; on DYRK2 (h) it was 5.00 to 5.52; at Haspin (h), 5.52 to 6.30.
For `Cn1cc(-c2ccc3scc(-c4cccnc4)c3n2)cn1` [Preparative Example 11, 5-(1-methyl-1H-pyrazol-4-yl)-3-(pyridin-3-yl)thieno[3,2-b]pyridine], the figures for the pIC50 at CDKL3(h), at DYRK2 (h) and at Haspin (h) were 6.30 to 7.00, 5.52 to 6.30 and 5.52 to 6.30, respectively.
Turning to `Cn1cc(-c2ccc3scc(-c4ccncc4)c3n2)cn1` [Preparative Example 13, 5-(1-methyl-1H-pyrazol-4-yl)-3-(pyridin-4-yl)thieno[3,2-b]pyridine], the pIC50 at CDKL3(h) was 6.30 to 7.00; at DYRK2 (h), 5.52 to 6.30; on Haspin (h), 7.00 to 7.70.
On the same counts, the results for `Cc1cc(-c2csc3ccc(-c4cnn(C)c4)nc23)ccn1` [Preparative Example 15, 5-(1-methyl-1H-pyrazol-4-yl)-3-(2-methylpyridin-4-yl)-thieno[3,2-b]pyridine] are 6.30 to 7.00, 5.52 to 6.30 and 6.30 to 7.00.
Turning to `COc1cc(-c2csc3ccc(-c4cnn(C)c4)nc23)ccn1` [Preparative Example 17, 3-(2-methoxypyridin-4-yl)-5-(1-methyl-1H-pyrazol-4-yl)thieno[3.2-b]pyridine], the pIC50 on CDKL3(h), at DYRK2 (h) and on Haspin (h) was 6.30 to 7.00 each time.
As to `Cn1cc(-c2ccc3scc(-c4ccnc(F)c4)c3n2)cn1` [Preparative Example 22, 3-(2-fluoropyridin-4-yl)-5-(1-methyl-1H-pyrazol-4-yl)thieno[3,2-b]pyridine], the pIC50 is 6.30 to 7.00 at CDKL3(h), 5.52 to 6.30 at DYRK2 (h) and 6.30 to 7.00 on Haspin (h).
For the compound `Cn1cc(-c2ccc3scc(-c4ccnc(CN)c4)c3n2)cn1` [Preparative Example 28, (4-(5-(1-methyl-1H-pyrazol-4-yl)thieno[3,2-b]pyridin-3-yl)pyridin-2-yl)methanamine], the figures for the pIC50 at CDKL3(h), on DYRK2 (h) and at Haspin (h) were 5.52 to 6.30, 6.30 to 7.00 and 7.00 to 7.70, respectively.
Turning to `Cc1cc(-c2csc3ccc(-c4cnn(C)c4)nc23)cc(C)n1` [Preparative Example 30, 3-(2,6-dimethylpyridin-4-yl)-5-(1-methyl-1H-pyrazol-4-yl)thieno-[3,2-b]pyridine], the pIC50 is 5.52 to 6.30 at CDKL3(h), 5.52 to 6.30 on DYRK2 (h) and 6.30 to 7.00 on Haspin (h).
As for `Cc1cnccc1-c1csc2ccc(-c3cnn(C)c3)nc12` [Preparative Example 32, 5-(1-methyl-1H-pyrazol-4-yl)-3-(3-methylpyridin-4-yl)thieno[3,2-b]pyridine], the pIC50 at CDKL3(h) was 5.52 to 6.30; on DYRK2 (h), 5.00 to 5.52; on Haspin (h), 5.00 to 5.52.
As to `Cn1cc(-c2ccc3scc(-c4ccncc4C#N)c3n2)cn1` [Preparative Example 34, 4-(5-(1-methyl-1H-pyrazol-4-yl)thieno[3,2-b]pyridin-3-yl)nicotino-nitrile], the pIC50 on CDKL3(h), at DYRK2 (h) and on Haspin (h) was 5.52 to 6.30 each time.
Regarding `Cn1cc(-c2ccc3scc(-c4ccncc4F)c3n2)cn1` [Preparative Example 36, 3-(3-fluoropyridin-4-yl)-5-(1-methyl-1H-pyrazol-4-yl)thieno[3,2-b]pyridine], the pIC50 at CDKL3(h) is 6.30 to 7.00; at DYRK2 (h) it was 5.52 to 6.30; at Haspin (h), 6.30 to 7.00.
As to `Cn1cc(-c2ccc3scc(-c4ccnnc4)c3n2)cn1` [Preparative Example 40, 5-(1-methyl-1H-pyrazol-4-yl)-3-(pyridazin-4-yl)thieno[3,2-b]-pyridine], the values for the pIC50 at CDKL3(h), on DYRK2 (h) and at Haspin (h) were 5.52 to 6.30, 5.52 to 6.30 and 6.30 to 7.00, respectively.
`Cn1cc(-c2ccc3scc(-c4ccc5ncnn5c4)c3n2)cn1` [Preparative Example 53, 3-([1,2,4]-triazolo[1,5-a]pyridin-6-yl)-5-(1-methyl-1H-pyrazol-4-yl)thieno[3,2-b]pyridine]: the values for the pIC50 on CDKL3(h), at DYRK2 (h) and at Haspin (h) were 6.30 to 7.00, 6.30 to 7.00 and 7.00 to 7.70, respectively.
Consider `Cn1cc(-c2ccc3scc(-c4cnn(C)c4)c3n2)cn1` [Preparative Example 63, 3,5-bis(1-methyl-1H-pyrazol-4-yl)thieno[3,2-b]pyridine], for which the pIC50 at CDKL3(h), on DYRK2 (h) and on Haspin (h) was 6.30 to 7.00 each time.
Turning to `Cn1cc(-c2ccc3scc(-c4ccns4)c3n2)cn1` [Preparative Example 67, 3-(isothiazol-5-yl)-5-(1-methyl-1H-pyrazol-4-yl)thieno[3,2-b]pyridine], the pIC50 at CDKL3(h) was 7.00 to 7.70; at DYRK2 (h), 6.30 to 7.00; at Haspin (h), 7.00 to 7.70.
